Data on 15 compounds can be found in article PMC3792051, “Polyenylpyrrole Derivatives Inhibit NLRP3 Inflammasome Activation and Inflammatory Mediator Expression by Reducing Reactive Oxygen Species Production and Mitogen-Activated Protein Kinase Activation” (PLoS ONE, 2013).

The subject of series [1] is RAW 264.7 cells. Briefly: AlamarBlue assay for cell viability (cytotoxicity). To be noted: read-out: IC50 (cytotoxicity), RAW 264.7 macrophages, 24 h treatment, 6.25-100 µM tested. On the technique in general: The colour change of resazurin is a common sign of viable cells or microbes.
For series [2], the system named is LPS-activated RAW 264.7 macrophages. Briefly: NO production inhibitory assay (Griess reaction). The settings on record: for ED50 (inhibition of LPS-induced NO production): RAW 264.7 macrophages, LPS 1 µg/ml, 24 h, Griess reaction; for NO production by LPS-activated cells: 2.5-40 µM, 30 min before and during LPS 1 µg/ml 24 h; for NO levels produced by non-activated cells: compound alone, no LPS (data not shown). The series is classed as cell-based, murine. The protocol:
RAW 264.7 cells seeded in 24-well plates at a density of 5 × 10^5 cells/ml (1 ml) were incubated for 24 h with or without LPS (1 µg/ml) in the absence or presence of the test samples, then NO production was measured indirectly by analysis of nitrite levels using the Griess reaction.
(§1) To investigate the inhibitory effect of compounds 1h, 1i, and 1n on the LPS-induced inflammatory response, NO levels in the supernatants of RAW 264.7 macrophages incubated with DMSO (vehicle) or compound 1h, 1i, or 1n for 30 min before, and during, incubation for 24 h with LPS (1 µg/ml) were measured by the Griess reaction. […] We next investigated their effect on the expression of iNOS, the NO producing enzyme, using Western blots.
(§2) Figure 2 Effect of polyenylpyrrole derivatives on the expression of inflammatory mediators in LPS-stimulated RAW 264.7 macrophages. In (A) and (C), the cells (5 × 10^5/ml; 1 ml) were incubated for 30 min with 2.5-40 µM compound 1h, 1i, or 1n or DMSO (vehicle), then LPS (1 µg/ml) was added and incubation continued for 24 h, then NO (A) or IL-6 or TNF-α (C) in the culture medium was assayed by the Griess reaction or ELISA, respectively. In (B), cells (5 × 10^5/ml; 1 ml) were pretreated for 30 min with 2.5-40 µM compound 1h or DMSO, then LPS (1 µg/ml) was added and incubation continued for 24 h, then expression of iNOS and COX-2 was measured by Western blotting. The fold increase is the intensity of the band of interest divided by that of the actin band normalized to the corresponding value for the 0 LPS/0 inhibitor control.
(Griess reagent forms a coloured azo dye with nitrite.)

For series [3] the test system is unchanged. Briefly: iNOS and COX-2 expression by Western blot. The series is classed as cell-based, murine. To be noted: 30 min pretreatment, LPS 24 h; for COX-2 expression / LPS-induced iNOS expression: 0-40 µM; for Concentration at which reduction of LPS-induced iNOS expression is significant: Western blot. The procedure:
Cells were washed twice with ice-cold phosphate-buffered saline (PBS) and lysed on ice for 5 min with lysis buffer (20 mM Tris-HCl, pH 7.5, 150 mM NaCl, 1 mM Na 2EDTA, 1 mM EGTA, 1% Triton X-100, 2.5 mM sodium pyrophosphate, 1 mM beta-glycerophosphate, 1 mM Na 3VO4, 1 µg/ml of leupeptin, 1 mM PMSF, protease inhibitor cocktail). The lysate was then centrifuged at 12,000 x g at 4 °C for 10 min and the pellet discarded. Proteins in the supernatant were separated by SDS-PAGE and electrotransferred to a PVDF membrane (EMD Millipore Corporation), which was then blocked by incubation for 1 h at room temperature in blocking buffer [(5% nonfat milk in PBS containing 0.1% Tween 20 (PBST)], then incubated for 2 h at room temperature with the primary antibody diluted in blocking buffer. After three washes in PBST, the membrane was incubated for 1 h at room temperature with an appropriate HRP-conjugated secondary antibody diluted in blocking buffer and developed using an enhanced chemiluminescence Western blot detection system (EMD Millipore Corporation).
as §1, §2
Background: Immunoblotting shows a protein as a band on a membrane.

Series [4] shares this test system. Briefly: IL-6 and TNF-α secretion by ELISA. The series is classed as cell-based, murine. The settings on record: for IL-6 production by LPS-activated cells / TNF-α secretion by LPS-activated cells: RAW 264.7, 2.5-40 µM, LPS 1 µg/ml 24 h; for Background levels of IL-6 and TNF-α in non-stimulated macrophages: RAW 264.7, no LPS (data not shown). The procedure:
The effects of the test samples on IL-1β, TNF-α, and IL-6 production were measured by ELISA according to the manufacturer’s instructions. In brief, 50 µl of biotinylated antibody reagent and 50 µl of supernatant were added to a stripwell plate precoated with anti-mouse IL-1β, TNF-α, or IL-6 antibodies, which was then incubated at room temperature for 2 h. After washing the plate three times with washing buffer, 100 µl of diluted streptavidin-HRP concentrate was added to each well and the plate incubated at room temperature for 30 min. The washing process was repeated, then 100 µl of a premixed tetramethylbenzidine substrate solution was added to each well and the plate incubated at room temperature in the dark for 30 min. After addition of 100 µl of stop solution to each well, the absorbance at 450 nm of each well was measured on a microplate reader.
as §1, §2

Series [5] concerns ATP-activated LPS-primed J774A.1 macrophages. In words: Intracellular ROS production (DCF fluorescence), ATP-induced. The series is classed as cell-based, murine.
Experimental: Intracellular ROS production was measured by detecting the fluorescence intensity of the 2’, 7’-dichlorofluorescein, the oxidation product of 2’, 7’-dichlorofluorescein diacetate (Molecular Probes, Eugene, OR). […] In another, J774A.1 macrophages (5 × 10^5/ml; 0.1 ml) were incubated with LPS (1 µg/ml) for 6 h, then vehicle, compound 1h (20 µM), or DPI (25 µM) was added for 30 min. 2’, 7’-dichlorofluorescein diacetate (2 µM) was then added for 30 min before incubation with ATP (5 mM) for the indicated time; while, in another, the order of addition of compound1h/DPI and LPS was reversed. The fluorescence intensity of 2’, 7’-dichlorofluorescein was detected at an excitation wavelength of 485 nm and an emission wavelength of 530 nm on a microplate absorbance reader (Bio-Rad Laboratories, Inc).
In (A), J774A.1 macrophages (1 × 10^6/ml; 1 ml) were incubated with LPS (1 µg/ml) for 6 h, then with compound 1h (20 µM), the NADPH oxidase inhibitor DPI (25 µM), or DMSO (vehicle) for 30 min in the continued presence of LPS, then 2’,7’-dichlorofluorescein diacetate (2 µM) was added for 30 min, followed by ATP (5 mM) for the indicated time, then ROS levels were determined by measuring the mean fluorescence intensity (MFI) of the fluorophore carboxyl-DCF and expressing this value relative to that at time zero. In (B), J774A.1 macrophages (1 × 10^6/ml; 1 ml) were incubated with compound 1h (20 µM), DPI (25 µM), or DMSO (vehicle) for 30 min, then LPS (1 µg/ml) was added for 6 h; the cells were then incubated with 2’,7’-dichlorofluorescein diacetate (2 µM) for 30 min, then with ATP (5 mM) for the indicated time and ROS levels were measured by detection of the fluorescence intensity of the fluorophore carboxyl-DCF and expressed relative to that at time zero.
Series [6] relates to LPS-activated RAW 264.7 macrophages. In words: Intracellular ROS production (DCF fluorescence), LPS-induced. Format: cell-based, murine. To be noted: RAW 264.7, 30 min pretreatment; compound 1h 20 µM, NAC 10 mM. The protocol:
Intracellular ROS production was measured by detecting the fluorescence intensity of the 2’, 7’-dichlorofluorescein, the oxidation product of 2’, 7’-dichlorofluorescein diacetate (Molecular Probes, Eugene, OR). In one study, RAW 264.7 macrophages (5 × 10^5/ml; 0.1 ml) were incubated with vehicle, compound 1h (20 µM), or NAC (10 mM) for 30 min, then 2’, 7’-dichlorofluorescein diacetate (2 µM) was added for 30 min, then LPS was added for the indicated time. In another, J774A.1 macrophages (5 × 10^5/ml; 0.1 ml) were incubated with LPS (1 µg/ml) for 6 h, then vehicle, compound 1h (20 µM), or DPI (25 µM) was added for 30 min. 2’, 7’-dichlorofluorescein diacetate (2 µM) was then added for 30 min before incubation with ATP (5 mM) for the indicated time; while, in another, the order of addition of compound1h/DPI and LPS was reversed. The fluorescence intensity of 2’, 7’-dichlorofluorescein was detected at an excitation wavelength of 485 nm and an emission wavelength of 530 nm on a microplate absorbance reader (Bio-Rad Laboratories, Inc).
To test whether compound 1h exerted its anti-inflammatory effect on LPS-activated cells by downregulation of ROS production, intracellular ROS production in LPS-activated RAW 264.7 macrophages was measured.
Figure 5 Effect of compound 1h on ROS production and MAPK phosphorylation in LPS-activated macrophages. […]

Series [7] is described as follows: in vitro. To be noted: mouse.
Series [8] relates to various cancer cells. On the set-up: method as in PMID 16468746. To be noted: cited from earlier work.

Molecules are shown by their SMILES. Where only a bound is given, the exact number is not on record here.

For the compound `COc1cc(/C=C/C=C/C=C/C=C/c2[nH]ccc2Cl)oc(=O)c1` [1a], the IC50 (usually the concentration needed to halve the response being measured) in series [1] was < 10 µM.

On to `CCCCc1c(OC)cc(/C=C/C=C/C=C/C=C/c2[nH]ccc2Cl)oc1=O` [1c], for which the IC50 in series [1] is < 10 µM.

For `COc1cc(/C(C)=C/C=C/C=C/C=C/c2[nH]ccc2Cl)oc(=O)c1` [1d], the half-inhibitory concentration (IC50) in series [1] is < 10 µM.

As for `CC\C(=C/C=C/C=C/C=C/c1[nH]ccc1Cl)c1cc(OC)c(C)c(=O)o1` [1f], the 50% inhibitory concentration (IC50) in series [1] is < 10 µM.

`CCCCc1c(OC)cc(/C(C)=C/C=C/C=C/C=C/c2[nH]ccc2Cl)oc1=O` [1g]: the IC50 in series [1] was < 10 µM.

For the compound `COc1cc(/C=C/C=C/C=C/C=C/c2sccc2Cl)oc(=O)c1` [1j], the IC50 in series [1] is > 100 µM. In addition, in series [2], the “ED50 (inhibition of LPS-induced NO production)” value is 29 ± 6 µM.

On to `COc1cc(/C=C/C=C/C=C/C=C/c2sccc2Cl)oc(=O)c1C` [1k], for which, in series [1], the concentration for half-maximal inhibition (IC50) was > 100 µM. Further, the “ED50 (inhibition of LPS-induced NO production)” value in series [2] turned out to be 18 ± 2 µM.

Consider `COc1cc(/C=C/C=C/C=C/C=C/c2ccccc2Cl)oc(=O)c1C` [1l], for which the IC50 in series [1] was > 100 µM. In addition, the “ED50 (inhibition of LPS-induced NO production)” value in series [2] is 18 ± 3 µM.

`COc1cc(/C=C/C=C/C=C/C=C/c2cccc(Cl)c2)oc(=O)c1C` [1m]: the IC50 in series [1] was > 100 µM. Moreover, the “ED50 (inhibition of LPS-induced NO production)” value in series [2] stood at 26 ± 3 µM.

As for `COc1cc(/C=C/C=C/C=C/C=C/c2c(Cl)ccn2S(C)(=O)=O)oc(=O)c1C` [1n], the IC50 in series [1] is > 100 µM. In addition, in series [2], the “NO production by LPS-activated cells” value was “decreased NO production by LPS-activated cells in a dose-dependent manner”, the “ED50 (inhibition of LPS-induced NO production)” value came out at 17 ± 2 µM and the “NO levels produced by non-activated cells” value is “did not alter NO levels produced by non-activated cells”. In series [3], the COX-2 expression result is listed as “did not affect expression of COX-2”, the “LPS-induced iNOS expression” value is “reduced LPS-induced iNOS expression” and the “Concentration at which reduction of LPS-induced iNOS expression is significant” value was 40 µM. Moreover, in series [4], the “IL-6 production by LPS-activated cells” value was “significantly decreased IL-6 production by LPS-activated cells in a dose-dependent manner”; the “TNF-α secretion by LPS-activated cells” value is “only slightly and non-significantly reduced”; the “Background levels of IL-6 and TNF-α in non-stimulated macrophages” value is “none of the three compounds altered background levels of IL-6 and TNF-α”.

With `c1ccc2c(c1)[I+]c1ccccc1-2` [DPI, diphenylene iodonium, reference compound], in series [5] (J774A.1, LPS 6 h, then compound 1h 20 µM or DPI 25 µM 30 min, ATP 5 mM 0-40 min), the “ATP-induced ROS production, compound added after LPS priming” value is given as “inhibited both processes”. For the same compound, in series [5] (J774A.1, compound 1h 20 µM or DPI 25 µM 30 min, then LPS 6 h, then ATP 5 mM), the “ATP-induced ROS production, compound added 30 min before LPS priming” value is “inhibited both processes”.

Take `CC(=O)N[C@@H](CS)C(=O)O` [NAC, N-acetyl cysteine, reference compound]: the “LPS-stimulated ROS production” value in series [6] is reported as “reduced ROS production”.

`COc1cc(/C=C/C=C/C=C/C=C/c2[nH]ccc2Cl)oc(=O)c1C` [compound 1b, auxarconjugatin A]: the IC50 in series [7] is < 10 µM.

Consider `COc1cc(/C(C)=C/C=C/C=C/C=C/c2[nH]ccc2Cl)oc(=O)c1C` [compound 1e, 12E-isorumbrin], for which the “Cytotoxicity for various cancer cells” value in series [8] is “shown to be cytotoxic for various cancer cells”. The IC50 in series [7] is < 10 µM.

Turning to `Cc1c(O)cc(/C=C/C=C/C=C/C=C/c2[nH]ccc2Cl)oc1=O` [compound 1i], the IC50 in series [1] is > 100 µM. Besides, in series [2], the “NO production by LPS-activated cells” value was “decreased NO production by LPS-activated cells in a dose-dependent manner”, the “ED50 (inhibition of LPS-induced NO production)” value is recorded as 16 ± 2 µM and the “NO levels produced by non-activated cells” value is “did not alter NO levels produced by non-activated cells”. Further, in series [3], the COX-2 expression entry is recorded as “did not affect expression of COX-2”, the “LPS-induced iNOS expression” value is recorded as “reduced LPS-induced iNOS expression” and the “Concentration at which reduction of LPS-induced iNOS expression is significant” value turned out to be 40 µM. In series [4], the “IL-6 production by LPS-activated cells” value was “significantly decreased IL-6 production by LPS-activated cells in a dose-dependent manner”; the “TNF-α secretion by LPS-activated cells” value was “only slightly and non-significantly reduced”; the “Background levels of IL-6 and TNF-α in non-stimulated macrophages” value was “none of the three compounds altered background levels of IL-6 and TNF-α”.
